Measured values from patent publication US20240247031A1, “COMPOSITION FOR TREATING CANCER CONTAINING TELOMERASE-TARGETING GNRH ANTAGONIST-DERIVED PEPTIDE HS1002” (Research & Business Foundation Sungkyunkwan University, priority 2023, published 2024).

Legend:
hTERT = hTERT mRNA and protein expression, western blot and qPCR (FIG. 10, 11); assay type: cell-based, human; settings: LNCaP, different concentrations, western blot
Method: To analyze the changes in the hTERT expression level and telomerase activity by the treatment with the produced peptides, real-time PCR was performed. Total RNA was extracted from cells by using an Easy-blue RNA extraction reagent (Intron, Korea), and subsequently, the extracted RNA was reverse transcribed using M-ML V reverse transcriptase (Invitrogen, CA). The PCR reaction was then performed using a LightCycler 480 SYBR Green I Master (Roche, Germany) according to the manufacturer's instructions. […]
Quantitative real-time RT-PCR (qRT-PCR) was performed using a Power SYBR Green 1-Step Kit and an ABI 7000 Real Time PCR System (Applied Biosystems, Carlsbad, CA, USA) according to the manufacturer's indications. […] The results were expressed as the ratio of target PCR product to GAPDH product. […] The quantification was performed using the ΔΔCT method (Applied Biosystems) with the RQ manager 1.2 software. Data are expressed as mean±SD. […]
After treatment with GV1001, HS1001, HS1002, and GnRH, the changes in hTERT mRNA and protein expression level were investigated for each peptide. […] To investigate the telomerase activity reducing effect of the peptides, prostate cancer cell lines (LNCaP) were treated with each drug at 300 μM every 24 h for a total of 72 h and then measured for telomerase activity through qPCR. […]

serum testosterone = test: Serum testosterone level and seminal vesicle weight after repeated injection (FIG. 15); assay type: in vivo, mouse; settings: male BALB/c mice
Method: 6-week-old male BALB/c mice (Jung Ang Lab Animal Inc., Seoul, South Korea) were subcutaneously injected with vehicle or 1 mg/kg/day HS1002 for 10 days. Blood samples were collected 5 h after initial injection and 5 h after last injection. The serum concentration of testosterone was determined using a testosterone ELISA kit (ALPCO Diagnostics, Salem, NH, USA).
GnRH agonists stimulate the release of LH and FSH by binding to GnRHR located on the pituitary gonadotropes and consequently stimulate the secretion of steroid hormone from the gonads. However, continuous exposure to the GnRH agonist results in the downregulation of desensitization of GnRHR and eventually decreases production of testosterone. The inhibitory effect on the pituitary gonadal axis has a role in the anti-prostate cancer effects of GnRH analogs. Based on the HS1002 peptide design strategy, to validate whether HS1002 functions as a GnRHR ligand, the serum testosterone level in male mice was tested after repeated subcutaneous injections of HS1002.

LNCaP tumors = test: LNCaP xenograft model, tumor volume, tumor weight and body weight (FIG. 17); assay type: in vivo; settings: LNCaP xenograft BALB/c nude mice, 1 mg/kg/day s.c., 13 days
Method: All mice were purchased from Central Lab Animal Inc. ([…]). They were raised in a 12 h environmental light/dark cycle with controlled temperature (22±2° C.) conditions. The experimental protocol was approved by the Sungkyunkwan University Institutional Animal Care and Use Committee (SKKUIACUC2021-06-27-1, SKKUIACUC2023-01-07-1). For the establishment of tumors, LNCaP (1×10^7), MC38 (2×10^5), and 4T1 (1×10^6) suspended in serum-free media containing 50% Matrigel was subcutaneously administered in the right flank of mice, respectively. The tumor volumes (V) were calculated using a caliper and the standard equation: V (mm^3)=0.52 (ab^2) (a=length, b=width). Once the tumor reached 100-200 mm^3, the mice were randomly divided into different groups and subcutaneously injected with a vehicle or each peptide every day.
To investigate the anticancer effect of HS1002, the present inventors observed the volume of cancer cells after transplanting the cancer cells into experimental animals. Specifically, mice (4-week-old male BALB/c nude mice; Central Lab. Animal Inc., Seoul, Korea) were prepared, and tumor cells (1×10^7 LNCaP cells) suspended in 1 mL of a serum-free medium containing 50% Matrigel were percutaneously injected into the upper flank of each nude mouse. When the tumor cell volume reached about 200 mm^3, the mice were randomly assigned to a vehicle control group, a leuprolide acetate-treated group, and test groups (GV1001-treated group and HS1002-treated group), respectively. Leuprolide acetate (0.1 mg/kg/day) and GV1001 and HS1002 (1 mg/kg/day) were injected subcutaneously for 13 days.

`CCNC(=O)[C@@H]1CCCN1C(=O)[C@@H](NC(=O)[C@H](Cc1ccccc1)NC(=O)[C@H](CCCNC(=N)N)NC(=O)[C@H](CC(C)C)NC(=O)[C@H](CCCNC(=N)N)NC(=O)[C@H](Cc1ccc(O)cc1)NC(=O)[C@H](CO)NC(=O)[C@H](Cc1c[nH]c2ccccc12)NC(=O)[C@H](Cc1c[nH]cn1)NC(=O)[C@@H]1CCC(=O)N1)[C@@H](C)CC` [HS1002] was tested, and the “hTERT protein expression, concentration dependence” value (hTERT) was “reduced with an increasing concentration”, the “serum testosterone level increase compared to the vehicle-injected group” value (serum testosterone; 1 mg/kg s.c., 5 h after the 1st injection) was 2.37 fold and the seminal vesicle weights (serum testosterone; 1 mg/kg/day s.c., 10 days, vs vehicle) was “significantly reduced”. The serum testosterone level (serum testosterone; 1 mg/kg/day s.c., at 10 days after repeated injection, vs vehicle) was “significantly lower”, the other toxicity (LNCaP tumors) was “no other toxicity” and the “reduction of tumor volume” value (LNCaP tumors) was “about 50%”. For the same compound, the “reduction of tumor weight” value (LNCaP tumors) was “about 50%”.
